This note sets out measurements from patent US11491245B2, “Gadolinium chelate compounds for use in magnetic resonance imaging” (BAYER PHARMA AKTIENGESELLSCHAFT, priority 2015, dated 2022).

Type in all cases: physicochemical
Data set [1] can be described thus: Relaxivity measurements at 1.41 T. Conditions: 1.41 T, 37° C., normalized to Gd; for r1 FBS: fetal bovine serum. Here is the method:
Relaxivity measurements at 1.41 T were performed using a MiniSpec mq60 spectrometer (Bruker Analytik, Karlsruhe, Germany) operating at a resonance frequency of 60 MHz and a temperature of 37° C. The T1 relaxation times were determined using the standard inversion recovery (IR) method with a fixed relaxation delay of at least 5×T1. The variable inversion time (TI) was calculated automatically by the standard software of the MiniSpec mq60 (8 steps). The T2 measurements were done by using a Carr-Purcell-Meiboom-Gill (CPMG) pulse sequence, applying a relaxation delay of at least 5×T1.
Each relaxivity measurement was performed using three different Gd concentrations (3 concentrations between 0.05 and 2 mM). The T1 and T2 relaxation times of the example compounds 1-10 were measured in different media for example in water, fetal bovine serum (FBS, Sigma, F7524) and human plasma.
Human plasma preparation: For each experiment fresh blood was taken from a volunteer using 10 mL citrate-tubes (Sarstedt S-Monovette 02.1067.001, 10 mL, Citrate). The 10 mL citrate-tubes were carefully inverted 10 times to mix blood and anticoagulant and centrifuged for 15 minutes at 1811 g at room temperature (Eppendorf, Centrifuge 5810R).
The relaxivities ri (where i=1, 2) were calculated on the basis of the measured relaxation rates Ri in water and plasma: Ri=Ri(0)+ri[CGd], where Ri(0) represent the relaxation rate of the respective solvent and CGd the concentration of the compound normalized to the Gadolinium. The Gadolinium concentrations of the investigated solutions were verified by Inductively Coupled Plasma Mass Spectroscopy (ICP-MS Agilent 7500a, Waldbronn, Germany).

Data set [2] can be described thus: Relaxivity measurements at 3.0 T. The following applies: 37° C., normalized to Gd, average ± standard deviation. Here is the method:
Relaxivity measurements at 3.0 T were performed with a whole body 3.0 T MRI Scanner (Philips Intera, Philips Healthcare, Hamburg, Germany) using a knee-coil (SENSE-Knee-8, Philips Healthcare, Hamburg, Germany). The sample tubes (CryoTubetm Vials, Thermo Scientific 1.8 mL, Roskilde, Denmark) were positioned in 3 rows of 4 and 5 tubes in a plastic holder in a box filled with water. The temperature was adjusted to 37° C. For the MRI sequence, the shortest possible echo-time (TE) with 7.46 milliseconds was used. The inversion times were chosen to optimize the sequence to measure T1 values corresponding to the estimated T1 range of all relaxation times of contrast media containing solutions. The following inversion times (TIs) were applied: 50, 100, 150, 200, 300, 500, 700, 1000, 1400, 2100, 3200, and 4500 milliseconds. The sequence was run with a constant relaxation delay of 3.4 seconds after the registration of the last echo (variable TR in the range from 3450 to 7900 milliseconds). For details of the fit procedure, see Rohrer et. al. (Invest. Radiol. 2005; 40, 11: 715-724). The experimental matrix of the phantom measurement was 320×320.
The relaxivities were evaluated using three different concentrations of each compound (3 concentrations between 0.05 and 2 mM).
The T1 relaxation times of the Example compounds 1-6 were measured in water and human plasma. Human plasma preparation: For each experiment fresh blood was taken from a volunteer using 10 mL citrate-tubes (Sarstedt S-Monovette 02.1067.001, 10 mL, Citrate). The 10 mL citrate-tubes were carefully inverted 10 times to mix blood and anticoagulant and centrifuged for 15 minutes at 1811 g at room temperature (Eppendorf, Centrifuge 5810R).
The relaxivities ri (where i=1, 2) were calculated on the basis of the measured relaxation rates Ri in water and plasma: Ri=Ri(0)+ri[CGd], where Ri(0) represent the relaxation rate of the respective solvent and CGd the concentration of the compound normalized to the Gadolinium (Table 2).

A short description of another data set: Water solubility. The following applies: 10 mM Tris-HCl buffer, 20° C. Here is the method: The water solubility of the compounds was determined at room temperature (20° C.) in 0.5 mL buffer solution (10 mM Tris-HCl) in the microcentrifuge tubes (Eppendorf, 2.0 mL safe-lock caps). The solid compound was added stepwise to the buffer solution. The suspension was mixed using a shaker (Heidolph Reax 2000) and treated 5 min in an ultrasound bath (Bandelin, Sonorex Super RK255H) The suspension was stored at room temperature (20° C.) over night and final Gadolinium concentration was determined by inductively coupled plasma mass spectrometry (ICP-MS).

A value given as a limit tells only on which side of the number the result lay.

Turning to `C[C@H](C(=O)NCC(=O)NCC(CNC(=O)CNC(=O)[C@@H](C)N1CCN(CC(=O)[O-])CCN(CC(=O)[O-])CCN(CC(=O)[O-])CC1)(CNC(=O)CNC(=O)[C@@H](C)N1CCN(CC(=O)[O-])CCN(CC(=O)[O-])CCN(CC(=O)[O-])CC1)CNC(=O)CNC(=O)[C@@H](C)N1CCN(CC(=O)[O-])CCN(CC(=O)[O-])CCN(CC(=O)[O-])CC1)N1CCN(CC(=O)[O-])CCN(CC(=O)[O-])CCN(CC(=O)[O-])CC1.[Gd+3].[Gd+3].[Gd+3].[Gd+3]` [Example 3-1, Tetragadolinium {4,10-bis(carboxylatomethyl)-7-[(2R,16R)-3,6,12,15-tetraoxo-16-[4,7,10-tris(carboxylatomethyl)-1,4,7,10-tetraazacyclododecan-1-yl]-9,9-bis({[({(2R)-2-[4,7,10-tris(carboxylatomethyl)-1,4,7,10-tetraazacyclododecan-1-yl]propanoyl}amino)-acetyl]amino}methyl)-4,7,11,14-tetraazaheptadecan-2-yl]-1,4,7,10-tetraazacyclo-dodecan-1-yl}acetate], in data set [1], the r1 human plasma came out at 10.4 L/mmol/s and the r1 water is 9.5 L/mmol/s. In data set [2], this compound yielded a r1 human plasma of 10.1 ± 0.1 L/mmol/s and a r1 water of 8.9 ± 0.2 L/mmol/s.
In data set [1], `C[C@@H](C(=O)NCC(=O)NCC(CNC(=O)CNC(=O)[C@H](C)N1CCN(CC(=O)[O-])CCN(CC(=O)[O-])CCN(CC(=O)[O-])CC1)(CNC(=O)CNC(=O)[C@H](C)N1CCN(CC(=O)[O-])CCN(CC(=O)[O-])CCN(CC(=O)[O-])CC1)CNC(=O)CNC(=O)[C@H](C)N1CCN(CC(=O)[O-])CCN(CC(=O)[O-])CCN(CC(=O)[O-])CC1)N1CCN(CC(=O)[O-])CCN(CC(=O)[O-])CCN(CC(=O)[O-])CC1.[Gd+3].[Gd+3].[Gd+3].[Gd+3]` [Example 3-2, Tetragadolinium {4,10-bis(carboxylatomethyl)-7-[(2S,16S)-3,6,12,15-tetraoxo-16-[4,7,10-tris(carboxylatomethyl)-1,4,7,10-tetraazacyclododecan-1-yl]-9,9-bis({[({(2S)-2-[4,7,10-tris(carboxylatomethyl)-1,4,7,10-tetraazacyclododecan-1-yl]propanoyl}amino)acetyl]-amino}methyl)-4,7,11,14-tetraazaheptadecan-2-yl]-1,4,7,10-tetraazacyclododecan-1-yl}-acetate] registered a r1 human plasma of 11.4 L/mmol/s and a r1 water of 9.4 L/mmol/s. In data set [2], the r1 human plasma was 11.4 ± 0.2 L/mmol/s and the r1 water turned out to be 9.0 ± 0.4 L/mmol/s.
For the compound `CC(C(=O)NCC(=O)N1CCN(C(=O)CNC(=O)C(C)N2CCN(CC(=O)[O-])CCN(CC(=O)[O-])CCN(CC(=O)[O-])CC2)CCN(C(=O)CNC(=O)C(C)N2CCN(CC(=O)[O-])CCN(CC(=O)[O-])CCN(CC(=O)[O-])CC2)CCN(C(=O)CNC(=O)C(C)N2CCN(CC(=O)[O-])CCN(CC(=O)[O-])CCN(CC(=O)[O-])CC2)CC1)N1CCN(CC(=O)[O-])CCN(CC(=O)[O-])CCN(CC(=O)[O-])CC1.[Gd+3].[Gd+3].[Gd+3].[Gd+3]` (centres unmarked) [Example 7, Tetragadolinium 2,2′,2″,2′″,2″″,2′″″,2″″″,2′″″″,2″″″″,2′″″″″,2″″″″″,2′″″″″″-{1,4,7,10-tetra-azacyclododecane-1,4,7,10-tetrayltetrakis[(2-oxoethane-2,1-diyl)imino(1-oxopropane-1,2-diyl)-1,4,7,10-tetraazacyclododecane-10,1,4,7-tetrayl]}dodecaacetate], in data set [1], the “r1 FBS” value is 11.7 L/mmol/s, the r1 human plasma came out at 12.1 L/mmol/s and the r1 water was found to be 10.8 L/mmol/s. In “Water solubility”, this compound came in with a Solubility above 1400 mmol Gd/L.
For `O=C([O-])CN1CCN(CC(=O)[O-])CCN(CC(=O)NCC(CNC(=O)CN2CCN(CC(=O)[O-])CCN(CC(=O)[O-])CCN(CC(=O)[O-])CC2)(CNC(=O)CN2CCN(CC(=O)[O-])CCN(CC(=O)[O-])CCN(CC(=O)[O-])CC2)CNC(=O)CN2CCN(CC(=O)[O-])CCN(CC(=O)[O-])CCN(CC(=O)[O-])CC2)CCN(CC(=O)[O-])CC1.[Gd+3].[Gd+3].[Gd+3].[Gd+3]` [Example 10, Tetragadolinium {4,10-bis(carboxylatomethyl)-7-[2-oxo-2-({3-({[4,7,10-tris(carboxylato-methyl)-1,4,7,10-tetraazacyclododecan-1-yl]acetyl}amino)-2,2-bis[({[4,7,10-tris-(carboxylatomethyl)-1,4,7,10-tetraazacyclododecan-1-yl]acetyl}amino)methyl]propyl}-amino)ethyl]-1,4,7,10-tetraazacyclododecan-1-yl}acetate] the same measures were 9.2 L/mmol/s, 9.7 L/mmol/s, 7.3 L/mmol/s and above 800 mmol Gd/L.
For “Hexagadolinium 2,2′,2″,2′″,2″″,2′″″,2″″″,2′″″″,2″″″″,2′″″″″,2″″″″″,2′″″″″″,2″″″″″″, 2′″″″″″″,2″″″″″″″, 2′″″″″″″″,2″″″″″″″″,2′″″″″″″″″-{3,7,10-triazatricyclo[3.3.3.0^1,5]undecane-3,7,10-triyltris[carbonyl(3,6,11,14-tetraoxo-4,7,10,13-tetraazahexadecane-8,2,15-triyl)di-1,4,7,10-tetraazacyclododecane-10,1,4,7-tetrayl]}octadecaacetate [Example 8]” the same measures were 14.5 L/mmol/s, 14.6 L/mmol/s, 12.5 L/mmol/s and above 1000 mmol Gd/L.
For “Tetragadolinium 2,2′,2″,2′″,2″″,2′″″,2″″″,2′″″″,2″″″″,2′″″″″,2″″″″″,2′″″″″″-(3,7,9-triazabicyclo[3.3.1]nonane-3,7-diylbis{carbonyl-1,4-diazepane-6,1,4-triylbis[(2-oxoethane-2,1-diyl)-1,4,7,10-tetraazacyclododecane-10,1,4,7-tetrayl]})dodecaacetate [Example 9]”, in data set [1], the “r1 FBS” value stood at 8.8 L/mmol/s and the r1 water came out at 7.4 L/mmol/s. The compound further gave a Solubility in “Water solubility” above 800 mmol Gd/L.
